Results as given in patent US20220169632A1, “METHODS AND MATERIALS FOR INCREASING OR MAINTAINING NICOTINAMIDE MONONUCLEOTIDE ADENYLYL TRANSFERASE-2 (NMNAT2) POLYPEPTIDE LEVELS” (University of Pittsburgh - Of the Commonwealth System of …, priority 2019, published 2022).

test system: NMNAT2; experiment: NMNAT2-Hibit nano-luciferase activity in stably transfected U87MG cells, various concentrations, 24 hours; type: cell-based; conditions: U87MG cells stably transfected with NMNAT2-Hibit luc plasmid
Experimental: Selected compounds were tested in vitro. U87MG cells were stably transfected with NMNAT2-Hibit luc plasmid. Cells were treated with a test compound at various concentrations for 24 hours. Cells were then collected and assayed for nano-luciferase activity.

SMILES | E: compound efficacy for NMNAT2 activation (concentration giving >25% increase in NMNAT2 luciferase activity)
Cc1ccc(Cn2cc([C@H]3C[C@@H]3C(=O)NCc3ccco3)c3ccccc32)cc1 (racemic) [BC20293] | ++ (“++” >25% increase in NMNAT2 luciferase activity at >1 μM ≤25 μM.)
Cc1ccc(Cn2cc([C@H]3C[C@@H]3C(=O)NCc3ccc(C)o3)c3ccccc32)cc1 (racemic) [BC20294] | + (“+” >25% increase in NMNAT2 luciferase activity at >25 μM.)
Cc1ccc(Cn2cc([C@H]3C[C@@H]3C(=O)NCc3cccc(F)c3)c3ccccc32)cc1 (racemic) [BC20295] | + (“+” >25% increase in NMNAT2 luciferase activity at >25 μM.)
Cc1ccc(Cn2cc([C@H]3C[C@@H]3C(=O)NCc3ccccc3C)c3ccccc32)cc1 (racemic) [BC20296] | ++ (“++” >25% increase in NMNAT2 luciferase activity at >1 μM ≤25 μM.)
Cc1ccc(Cn2cc([C@H]3C[C@@H]3C(=O)NCc3cccc(C)c3)c3ccccc32)cc1 (racemic) [BC20297] | + (“+” >25% increase in NMNAT2 luciferase activity at >25 μM.)
COc1ccccc1CNC(=O)[C@H]1C[C@@H]1c1cn(Cc2ccc(C)cc2)c2ccccc12 (racemic) [BC20298] | + (“+” >25% increase in NMNAT2 luciferase activity at >25 μM.)
COc1cccc(CNC(=O)[C@H]2C[C@@H]2c2cn(Cc3ccc(C)cc3)c3ccccc23)c1 (racemic) [BC20299] | + (“+” >25% increase in NMNAT2 luciferase activity at >25 μM.)
Cc1ccc(Cn2cc([C@H]3C[C@@H]3C(=O)NCCc3ccccc3)c3ccccc32)cc1 (racemic) [BC20300] | ++ (“++” >25% increase in NMNAT2 luciferase activity at >1 μM ≤25 μM.)
Cc1ccc(Cn2cc([C@H]3C[C@@H]3C(=O)NCc3cccnc3)c3ccccc32)cc1 (racemic) [BC20301] | + (“+” >25% increase in NMNAT2 luciferase activity at >25 μM.)
Cc1ccc(C)c(Cn2c(C)c([C@H]3C[C@@H]3C(=O)NCc3cccc(F)c3)c3ccccc32)c1 (racemic) [BC20302] | + (“+” >25% increase in NMNAT2 luciferase activity at >25 μM.)
Cc1cccc(CNC(=O)[C@H]2C[C@@H]2c2c(C)n(Cc3cc(C)ccc3C)c3ccccc23)c1 (racemic) [BC20303] | + (“+” >25% increase in NMNAT2 luciferase activity at >25 μM.)
Cc1ccc(C)c(Cn2c(C)c([C@H]3C[C@@H]3C(=O)NCc3ccco3)c3ccccc32)c1 (racemic) [BC20323] | + (“+” >25% increase in NMNAT2 luciferase activity at >25 μM.)
COc1ccccc1CNC(=O)[C@H]1C[C@@H]1c1c(C)n(Cc2cc(C)ccc2C)c2ccccc12 (racemic) [BC20324] | + (“+” >25% increase in NMNAT2 luciferase activity at >25 μM.)
COc1cccc(CNC(=O)[C@H]2C[C@@H]2c2c(C)n(Cc3cc(C)ccc3C)c3ccccc23)c1 (racemic) [BC20325] | + (“+” >25% increase in NMNAT2 luciferase activity at >25 μM.)
Cc1ccc(C)c(Cn2c(C)c([C@H]3C[C@@H]3C(=O)NCCc3ccccc3)c3ccccc32)c1 (racemic) [BC20326] | ++ (“++” >25% increase in NMNAT2 luciferase activity at >1 μM ≤25 μM.)
Cc1ccc(C)c(Cn2cc([C@H]3C[C@@H]3C(=O)NCc3ccco3)c3ccccc32)c1 (racemic) [BC20344] | + (“+” >25% increase in NMNAT2 luciferase activity at >25 μM.)
Cc1ccc(C)c(Cn2cc([C@H]3C[C@@H]3C(=O)NCc3ccc(C)o3)c3ccccc32)c1 (racemic) [BC20345] | + (“+” >25% increase in NMNAT2 luciferase activity at >25 μM.)
Cc1ccc(C)c(Cn2cc([C@H]3C[C@@H]3C(=O)NCc3cccc(F)c3)c3ccccc32)c1 (racemic) [BC20346] | + (“+” >25% increase in NMNAT2 luciferase activity at >25 μM.)
Cc1ccc(C)c(Cn2cc([C@H]3C[C@@H]3C(=O)NCc3ccccc3C)c3ccccc32)c1 (racemic) [BC20347] | ++ (“++” >25% increase in NMNAT2 luciferase activity at >1 μM ≤25 μM.)
Cc1cccc(CNC(=O)[C@H]2C[C@@H]2c2cn(Cc3cc(C)ccc3C)c3ccccc23)c1 (racemic) [BC20348] | + (“+” >25% increase in NMNAT2 luciferase activity at >25 μM.)
COc1ccccc1CNC(=O)[C@H]1C[C@@H]1c1cn(Cc2cc(C)ccc2C)c2ccccc12 (racemic) [BC20349] | + (“+” >25% increase in NMNAT2 luciferase activity at >25 μM.)
COc1cccc(CNC(=O)[C@H]2C[C@@H]2c2cn(Cc3cc(C)ccc3C)c3ccccc23)c1 (racemic) [BC20350] | + (“+” >25% increase in NMNAT2 luciferase activity at >25 μM.)

SMILES | E: compound efficacy for NMNAT2 activation (concentration giving >25% increase in NMNAT2 luciferase activity)
Cc1ccc(C)c(Cn2cc([C@H]3C[C@@H]3C(=O)NCc3cccnc3)c3ccccc32)c1 (racemic) [BC20351] | + (“+” >25% increase in NMNAT2 luciferase activity at >25 μM.)
Cc1ccc(C)c(Cn2cc([C@H]3C[C@@H]3C(=O)NCc3ccncc3)c3ccccc32)c1 (racemic) [BC20352] | + (“+” >25% increase in NMNAT2 luciferase activity at >25 μM.)
CCCCN(CC)Cc1ccc(CNC(=O)[C@H]2C[C@@H]2c2cn(Cc3cc(C)ccc3C)c3ccccc23)o1 (racemic) [BC20353] | ++ (“++” >25% increase in NMNAT2 luciferase activity at >1 μM ≤25 μM.)
Cc1ccc(C)c(Cn2cc([C@H]3C[C@@H]3C(=O)N3CCc4occc4C3)c3ccccc32)c1 (racemic) [BC20359] | + (“+” >25% increase in NMNAT2 luciferase activity at >25 μM.)
Cc1ccc(C)c(Cn2cc([C@H]3C[C@@H]3C(=O)NCCc3ccccc3)c3ccccc32)c1 (racemic) [BC20360] | ++ (“++” >25% increase in NMNAT2 luciferase activity at >1 μM ≤25 μM.)
Cc1ccc(C)c(Cn2cc([C@H]3C[C@@H]3C(=O)NC(C)Cc3ccco3)c3ccccc32)c1 (mixture of isomers) [BC20363] | ++ (“++” >25% increase in NMNAT2 luciferase activity at >1 μM ≤25 μM.)
Cc1ccc(C)c(Cn2cc([C@H]3C[C@@H]3C(=O)N(CCN(C)C)Cc3ccco3)c3ccccc32)c1 (racemic) [BC20364] | +++ (“+++” >25% increase in NMNAT2 luciferase activity at ≤1 μM.)
COCCN(CCNC(=O)[C@H]1C[C@@H]1c1cn(Cc2cc(C)ccc2C)c2ccccc12)Cc1ccco1 (racemic) [BC20365] | + (“+” >25% increase in NMNAT2 luciferase activity at >25 μM.)
Cc1ccc(C)c(Cn2cc([C@H]3C[C@@H]3C(=O)NCc3ccccn3)c3ccccc32)c1 (racemic) [BC20366] | + (“+” >25% increase in NMNAT2 luciferase activity at >25 μM.)
Cc1c(C)n(Cc2ccccc2F)c2ccc(C(=O)NCc3ccco3)cc12 [BC20100] | ++ (“++” >25% increase in NMNAT2 luciferase activity at >1 μM ≤25 μM.)
Cc1c(C)n(Cc2cccc(F)c2)c2ccc(C(=O)NCc3ccco3)cc12 [BC20101] | +++ (“+++” >25% increase in NMNAT2 luciferase activity at ≤1 μM.)
Cc1ccc(C)c(Cn2c3c(c4ccccc42)CC(C(=O)NCc2ccco2)CC3)c1 (stereo not shown) [BC20102] | ++ (“++” >25% increase in NMNAT2 luciferase activity at >1 μM ≤25 μM.)
Cc1c(C)n(Cc2ccccc2F)c2ccc(C(=O)NCc3ccccc3F)cc12 [BC20103] | +++ (“+++” >25% increase in NMNAT2 luciferase activity at ≤1 μM.)
Cc1c(C)n(Cc2ccccc2F)c2ccc(C(=O)NCc3cccc(F)c3)cc12 [BC20104] | ++ (“++” >25% increase in NMNAT2 luciferase activity at >1 μM ≤25 μM.)
Cc1ccccc1CNC(=O)c1ccc2c(c1)c(C)c(C)n2Cc1ccccc1F [BC20105] | ++ (“++” >25% increase in NMNAT2 luciferase activity at >1 μM ≤25 μM.)
COc1ccccc1CNC(=O)c1ccc2c(c1)c(C)c(C)n2Cc1ccccc1F [BC20106] | ++ (“++” >25% increase in NMNAT2 luciferase activity at >1 μM ≤25 μM.)
Cc1c(C)n(Cc2ccccc2F)c2ccc(C(=O)N3CCN(C(=O)c4ccco4)CC3)cc12 [BC20107] | ++ (“++” >25% increase in NMNAT2 luciferase activity at >1 μM ≤25 μM.)
Cc1c(C)n(Cc2ccccc2F)c2ccc(C(=O)NCc3cccnc3)cc12 [BC20108] | +++ (“+++” >25% increase in NMNAT2 luciferase activity at ≤1 μM.)
Cc1ccc(CNC(=O)c2ccc3c(c2)c(C)c(C)n3Cc2cccc(F)c2)o1 [BC20109] | ++ (“++” >25% increase in NMNAT2 luciferase activity at >1 μM ≤25 μM.)
Cc1c(C)n(Cc2cccc(F)c2)c2ccc(C(=O)NCC3CCCO3)cc12 (stereo not shown) [BC20110] | +++ (“+++” >25% increase in NMNAT2 luciferase activity at ≤1 μM.)
Cc1c(C)n(Cc2cccc(F)c2)c2ccc(C(=O)NCc3cccc(F)c3)cc12 [BC20112] | +++ (“+++” >25% increase in NMNAT2 luciferase activity at ≤1 μM.)
